PMC10066365, “Nemacol is a small molecule inhibitor of C. elegans vesicular acetylcholine transporter with anthelmintic potential” (Nature Communications, 2023)

Experiments:
Pristionchus pacificus = Pristionchus pacificus motor disruption dose-response on solid media, 1 h; conditions: for mean % any phene (coiled, jerky-Unc or paralyzed): Pristionchus pacificus young adults, mean of three biological replicates; for EC50: Pristionchus pacificus, 1 h, read-out: P. pacificus motor disruption EC50; for rep 1 atypical locomotion / rep 1 coiled / rep 1 no phene / rep 1 paralyzed: count of 20 animals per trial, one hour
[1] = tested on: Dirofilaria immitis microfilariae; assay: Dirofilaria immitis microfilariae immobility assay (DiroImager, 72 h); conditions: for EC50: Dirofilaria immitis, 72 h, read-out: Dirofilaria immitis filariae EC50
In short: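 About 250 freshly purified microfilariae of the Missouri isolate per well in supplemented RPMI 1640, exposed to compound for 72 h. Motility scored by automated whole-plate optical imaging; medium with 1% DMSO as negative control.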

[2] = conc 3.75, observed at one hour
[3] = 0.08 µM, Dirofilaria immitis microfilariae
[4] = 0.4 µM, Dirofilaria immitis microfilariae
[5] = 2 µM, Dirofilaria immitis microfilariae
[6] = 10 µM, Dirofilaria immitis microfilariae
[7] = 50 µM, Dirofilaria immitis microfilariae

SMILES	mean % any phene (coiled, jerky-Unc or paralyzed) (Pristionchus pacificus; [2]) [%]	mean % any phene (coiled, jerky-Unc or paralyzed) (Pristionchus pacificus; conc 15, observed at one hour) [%]	mean % any phene (coiled, jerky-Unc or paralyzed) (Pristionchus pacificus; conc 60, observed at one hour) [%]	EC50 (Pristionchus pacificus) [µM]	EC50 [1] [µM]	% effect (motility), DIROIM MF [1, 3] [%]	% effect (motility), DIROIM MF [1, 4] [%]	% effect (motility), DIROIM MF [1, 5] [%]	% effect (motility), DIROIM MF [1, 6] [%]	% effect (motility), DIROIM MF [1, 7] [%]	other results
O[C@@H]1CCCC[C@H]1N1CCC(c2ccccc2)CC1 (racemic) [vesamicol, reference compound]	0	0.8333	9.167	> 60	–	–	–	–	–	–	–
O=[N+]([O-])c1ccc(N2CCN(CC3CCCCC3)CC2)cc1 [Nemacol-1]	0	56.6667	100	14.1 ± 2.9	2.2	–	–	–	–	–	rep 1 atypical locomotion (Pristionchus pacificus; conc 3.75): 4; rep 1 coiled (Pristionchus pacificus; conc 3.75): 1; rep 1 no phene (Pristionchus pacificus; conc 3.75): 15; rep 1 paralyzed (Pristionchus pacificus; conc 3.75): 0; rep 1 atypical locomotion (Pristionchus pacificus; conc 15): 13; rep 1 coiled (Pristionchus pacificus; conc 15): 1; rep 1 no phene (Pristionchus pacificus; conc 15): 6; rep 1 paralyzed (Pristionchus pacificus; conc 15): 0; rep 1 atypical locomotion (Pristionchus pacificus; conc 60): 0; rep 1 coiled (Pristionchus pacificus; conc 60): 2; rep 1 no phene (Pristionchus pacificus; conc 60): 0; rep 1 paralyzed (Pristionchus pacificus; conc 60): 18; % effect (motility), DIROIM MF ([1]; 0.016 µM): 0%; % effect (motility), DIROIM MF ([1]; 0.08 µM): 0%; % effect (motility), DIROIM MF ([1]; 0.4 µM): 0%; % effect (motility), DIROIM MF ([1]; 2 µM): 20%; % effect (motility), DIROIM MF ([1]; 10 µM): 100%; % effect (motility), DIROIM MF ([1]; 50 µM): 100%
CCC1CCC(N2CCN(c3ccc([N+](=O)[O-])cc3)CC2)CC1 (stereo not drawn) [Nemacol-2]	4.167	89.1667	100	8.6 ± 1.3	–	–	–	–	–	–	–
O=[N+]([O-])c1ccc(N2CCN(CC3CC4C=CC3C4)CC2)cc1 (stereo not drawn) [Nemacol-3]	0	16.6667	95	24.5 ± 2.2	9.1	0	0	0	80	100	–
O=[N+]([O-])c1ccc(N2CCN(CC3CC=CCC3)CC2)cc1 (stereo not drawn) [Nemacol-4]	0	15.8333	100	19.2	5.2	0	0	0	100	100	–
